Measured values as given in patent US11572590B2, “Methods for evaluating tumor cell spheroids using 3D microfluidic cell culture device” (Dana-Farber Cancer Institute, Inc., priority 2017, dated 2023).
Where two headings read alike, the source gives them in different places.

Key:
Experiment in all cases: SelectScreen Kinase Profiling, single point inhibition and IC50 for off-target kinases
Type in all cases: biochemical
off-target kinases [1] = target: T1, off-target kinases (Homo sapiens, UniProt Q9UQB9); conditions: AURKC (Aurora C), ZLYTE, ATP Km app
T1 sequence (Q9UQB9 1-309): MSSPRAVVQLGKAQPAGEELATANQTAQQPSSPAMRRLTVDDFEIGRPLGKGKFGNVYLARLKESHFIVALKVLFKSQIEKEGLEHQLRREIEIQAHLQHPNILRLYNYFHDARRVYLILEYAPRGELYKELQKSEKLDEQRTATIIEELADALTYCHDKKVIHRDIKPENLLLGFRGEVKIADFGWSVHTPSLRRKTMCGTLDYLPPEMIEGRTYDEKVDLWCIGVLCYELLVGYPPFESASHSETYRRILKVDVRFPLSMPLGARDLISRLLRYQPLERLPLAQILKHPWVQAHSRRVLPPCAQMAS

off-target kinases [2] = target: T2, off-target kinases (Homo sapiens, UniProt Q13043)
T2 sequence (Q13043 1-487): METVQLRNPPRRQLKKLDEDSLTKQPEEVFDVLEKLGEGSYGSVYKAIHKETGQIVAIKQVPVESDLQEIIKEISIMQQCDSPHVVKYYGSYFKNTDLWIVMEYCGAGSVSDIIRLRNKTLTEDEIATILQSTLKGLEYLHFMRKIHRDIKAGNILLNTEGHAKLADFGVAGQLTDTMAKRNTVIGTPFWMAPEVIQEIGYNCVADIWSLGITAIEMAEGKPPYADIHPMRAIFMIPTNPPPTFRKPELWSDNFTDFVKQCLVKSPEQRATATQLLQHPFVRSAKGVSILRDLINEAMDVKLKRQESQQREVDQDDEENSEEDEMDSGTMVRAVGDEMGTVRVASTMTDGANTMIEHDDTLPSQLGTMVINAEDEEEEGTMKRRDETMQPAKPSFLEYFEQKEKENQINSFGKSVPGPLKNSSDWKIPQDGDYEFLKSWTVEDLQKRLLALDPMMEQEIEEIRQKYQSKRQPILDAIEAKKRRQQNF

off-target kinases [3] = target: off-target kinases (Homo sapiens, UniProt Q13705); conditions: ACVR2B, LanthaScreen Binding
off-target kinases [4] = target: off-target kinases (Homo sapiens, UniProt P00519, T315I); conditions: ABL1 T315I, mutant y, ZLYTE, ATP Km app
off-target kinases [5] = target: off-target kinases (Homo sapiens, UniProt P78362); conditions: SRPK2; Cmpd1 1000 μM; ATP Km app; ZLYTE
off-target kinases [6] = target: off-target kinases (Homo sapiens, UniProt P05129); conditions: PRKCG (PKC gamma); Cmpd1 1000 μM; ATP Km app; ZLYTE
off-target kinases [7] = target: off-target kinases (Homo sapiens, UniProt P49336); conditions: CDK8/cyclin C, LanthaScreen Binding
off-target kinases [8] = target: off-target kinases (Homo sapiens, UniProt Q8N4C8); conditions: MINK1, ATP Km app, ZLYTE
Sequence of off-target kinases (Homo sapiens, UniProt Q8N4C8) (Q8N4C8 whole entry): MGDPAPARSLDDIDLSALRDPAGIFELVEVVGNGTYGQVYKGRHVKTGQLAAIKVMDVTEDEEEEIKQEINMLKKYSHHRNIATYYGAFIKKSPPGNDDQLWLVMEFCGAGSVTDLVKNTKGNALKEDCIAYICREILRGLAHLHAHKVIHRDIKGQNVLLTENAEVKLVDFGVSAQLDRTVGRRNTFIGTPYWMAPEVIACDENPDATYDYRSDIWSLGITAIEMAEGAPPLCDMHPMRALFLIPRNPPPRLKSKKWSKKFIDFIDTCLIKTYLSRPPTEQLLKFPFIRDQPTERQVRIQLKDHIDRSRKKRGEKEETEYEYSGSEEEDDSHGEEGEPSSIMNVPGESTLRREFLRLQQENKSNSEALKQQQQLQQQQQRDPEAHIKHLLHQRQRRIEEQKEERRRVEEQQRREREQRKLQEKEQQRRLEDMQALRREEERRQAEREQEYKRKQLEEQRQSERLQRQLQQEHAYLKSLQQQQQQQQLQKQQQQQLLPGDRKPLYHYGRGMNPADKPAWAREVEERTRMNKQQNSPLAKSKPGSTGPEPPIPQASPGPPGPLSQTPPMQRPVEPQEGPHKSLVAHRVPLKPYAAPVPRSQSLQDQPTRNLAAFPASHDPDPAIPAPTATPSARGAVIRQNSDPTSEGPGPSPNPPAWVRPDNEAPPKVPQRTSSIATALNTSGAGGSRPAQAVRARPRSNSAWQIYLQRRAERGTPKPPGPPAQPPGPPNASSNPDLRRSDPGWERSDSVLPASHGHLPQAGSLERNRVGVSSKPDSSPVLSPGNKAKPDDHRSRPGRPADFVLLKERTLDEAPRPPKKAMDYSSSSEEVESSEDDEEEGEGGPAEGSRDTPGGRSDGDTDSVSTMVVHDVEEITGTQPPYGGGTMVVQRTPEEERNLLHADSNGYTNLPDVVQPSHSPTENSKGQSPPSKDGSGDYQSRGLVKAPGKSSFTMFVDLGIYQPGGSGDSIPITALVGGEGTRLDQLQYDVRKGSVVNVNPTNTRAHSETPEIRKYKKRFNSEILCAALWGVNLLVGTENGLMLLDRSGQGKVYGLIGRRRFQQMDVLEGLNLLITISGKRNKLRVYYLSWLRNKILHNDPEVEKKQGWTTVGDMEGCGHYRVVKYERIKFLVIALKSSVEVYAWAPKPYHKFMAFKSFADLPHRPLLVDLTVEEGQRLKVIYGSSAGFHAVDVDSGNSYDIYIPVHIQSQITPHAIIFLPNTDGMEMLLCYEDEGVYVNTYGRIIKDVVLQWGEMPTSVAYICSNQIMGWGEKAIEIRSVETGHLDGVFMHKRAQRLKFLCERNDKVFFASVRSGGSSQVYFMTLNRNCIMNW

Sequence of off-target kinases (Homo sapiens, UniProt P78362) (P78362 whole entry): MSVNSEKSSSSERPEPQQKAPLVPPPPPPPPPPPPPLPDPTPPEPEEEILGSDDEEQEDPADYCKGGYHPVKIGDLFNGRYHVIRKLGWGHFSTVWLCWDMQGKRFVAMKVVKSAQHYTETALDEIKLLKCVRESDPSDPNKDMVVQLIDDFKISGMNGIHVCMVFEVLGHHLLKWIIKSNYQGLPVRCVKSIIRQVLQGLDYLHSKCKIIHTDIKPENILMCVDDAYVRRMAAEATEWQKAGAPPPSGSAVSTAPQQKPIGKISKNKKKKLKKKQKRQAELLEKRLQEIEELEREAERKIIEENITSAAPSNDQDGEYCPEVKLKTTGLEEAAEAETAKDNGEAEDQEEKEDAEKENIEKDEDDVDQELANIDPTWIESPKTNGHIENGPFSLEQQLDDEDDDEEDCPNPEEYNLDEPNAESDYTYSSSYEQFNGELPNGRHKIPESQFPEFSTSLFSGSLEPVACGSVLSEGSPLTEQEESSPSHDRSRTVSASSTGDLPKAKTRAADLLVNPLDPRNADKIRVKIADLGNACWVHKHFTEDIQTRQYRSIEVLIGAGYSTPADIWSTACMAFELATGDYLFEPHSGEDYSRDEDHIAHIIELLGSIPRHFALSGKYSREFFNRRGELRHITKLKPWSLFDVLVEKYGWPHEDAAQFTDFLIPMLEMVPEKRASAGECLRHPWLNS
Sequence of off-target kinases (Homo sapiens, UniProt P49336) (P49336 whole entry): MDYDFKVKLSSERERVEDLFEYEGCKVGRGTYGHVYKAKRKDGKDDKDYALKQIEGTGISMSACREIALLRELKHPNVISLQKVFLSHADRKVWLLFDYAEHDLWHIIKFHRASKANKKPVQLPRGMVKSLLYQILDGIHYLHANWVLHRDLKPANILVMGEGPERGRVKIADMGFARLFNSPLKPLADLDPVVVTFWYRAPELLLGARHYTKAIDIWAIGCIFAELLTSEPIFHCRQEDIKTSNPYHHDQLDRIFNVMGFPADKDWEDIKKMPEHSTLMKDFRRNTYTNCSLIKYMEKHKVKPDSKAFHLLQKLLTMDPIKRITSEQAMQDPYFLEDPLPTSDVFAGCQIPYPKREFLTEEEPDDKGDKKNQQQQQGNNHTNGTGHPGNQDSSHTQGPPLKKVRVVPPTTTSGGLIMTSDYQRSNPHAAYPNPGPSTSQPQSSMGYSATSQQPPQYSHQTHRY
Sequence of off-target kinases (Homo sapiens, UniProt Q13705) (Q13705 19-512): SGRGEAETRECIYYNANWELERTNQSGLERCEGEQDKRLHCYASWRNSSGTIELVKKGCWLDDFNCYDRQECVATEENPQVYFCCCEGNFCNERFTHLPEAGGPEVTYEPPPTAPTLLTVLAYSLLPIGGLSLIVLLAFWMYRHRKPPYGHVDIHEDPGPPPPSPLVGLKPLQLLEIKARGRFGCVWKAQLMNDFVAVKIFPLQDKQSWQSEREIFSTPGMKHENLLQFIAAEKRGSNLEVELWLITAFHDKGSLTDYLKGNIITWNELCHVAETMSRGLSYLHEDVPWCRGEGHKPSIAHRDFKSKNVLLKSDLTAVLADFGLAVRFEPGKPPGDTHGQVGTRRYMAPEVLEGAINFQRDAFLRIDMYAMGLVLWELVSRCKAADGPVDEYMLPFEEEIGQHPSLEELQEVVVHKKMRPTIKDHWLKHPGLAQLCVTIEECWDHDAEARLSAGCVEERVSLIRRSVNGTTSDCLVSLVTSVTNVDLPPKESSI

N#Cc1cc(-c2ncnc(Nc3ccc(N4CCN(C5COC5)CC4)cc3)n2)ccc1OC1CCOCC1 [Compound 1, 5-(4-((4-(4-(oxetan-3-yl)piperazin-1-yl)phenyl)amino)-1,3,5-triazin-2-yl)-2-((tetrahydro-2H-pyran-4-yl)oxy)benzonitrile]
inhibition (off-target kinases [1]; read-out: % Inhibition 1): 23%
inhibition (off-target kinases [1]; read-out: % Inhibition 2): 23%
inhibition (off-target kinases [1]; read-out: % Inhibition Avg): 23%
inhibition (off-target kinases [2]; STK4 (MST1), ZLYTE, ATP Km app, read-out: % Inhibition Avg): 0%
inhibition (off-target kinases [2]; read-out: % Inhibition 1): 0%
inhibition (off-target kinases [2]; read-out: % Inhibition 2): 0%
inhibition (off-target kinases [3]; read-out: % Inhibition 1): 27%
inhibition (off-target kinases [3]; read-out: % Inhibition 2): 31%
inhibition (off-target kinases [3]; read-out: % Inhibition Avg): 29%
inhibition (off-target kinases [4]; read-out: % Inhibition 1): 30%
inhibition (off-target kinases [4]; read-out: % Inhibition 2): 29%
inhibition (off-target kinases [4]; read-out: % Inhibition Avg): 29%
% Inhibition 1 (off-target kinases [5]): −2%
% Inhibition 2 (off-target kinases [5]): −4%
% Inhibition Avg (off-target kinases [5]): −3%
% Inhibition 1 (off-target kinases [6]): −9%
% Inhibition 2 (off-target kinases [6]): −1%
% Inhibition Avg (off-target kinases [6]): −5%
inhibition (off-target kinases [7]; read-out: % Inhibition 1): 0%
inhibition (off-target kinases [7]; read-out: % Inhibition 2): 3%
inhibition (off-target kinases [7]; read-out: % Inhibition Avg): 1%
inhibition (off-target kinases [8]; read-out: % Inhibition 1): 66%
inhibition (off-target kinases [8]; read-out: % Inhibition 2): 70%
inhibition (off-target kinases [8]; read-out: % Inhibition Avg): 68%
